Source: the kinase profiling compilation of Christmann-Franck et al. (2016)

Key:
Experiment in all cases: radiometric filter-binding kinase assay, Kinaseprofiler
SRC (human) = SRC (human) (UniProt P12931); conditions: ATP 200 µM
CDC42BPA (human) = CDC42BPA (human) (UniProt Q5VT25); conditions: ATP 45 µM
ABL1 (human) = ABL1 (human) (UniProt P00519); conditions: ATP 10 µM
CAMK1D (human) = CAMK1D (human) (UniProt Q8IU85); conditions: ATP 15 µM
CAMK2G (human) = CAMK2G (human) (UniProt Q13555); conditions: ATP 10 µM
Chain of CAMK2G (human) (Q13555 whole entry, looked up): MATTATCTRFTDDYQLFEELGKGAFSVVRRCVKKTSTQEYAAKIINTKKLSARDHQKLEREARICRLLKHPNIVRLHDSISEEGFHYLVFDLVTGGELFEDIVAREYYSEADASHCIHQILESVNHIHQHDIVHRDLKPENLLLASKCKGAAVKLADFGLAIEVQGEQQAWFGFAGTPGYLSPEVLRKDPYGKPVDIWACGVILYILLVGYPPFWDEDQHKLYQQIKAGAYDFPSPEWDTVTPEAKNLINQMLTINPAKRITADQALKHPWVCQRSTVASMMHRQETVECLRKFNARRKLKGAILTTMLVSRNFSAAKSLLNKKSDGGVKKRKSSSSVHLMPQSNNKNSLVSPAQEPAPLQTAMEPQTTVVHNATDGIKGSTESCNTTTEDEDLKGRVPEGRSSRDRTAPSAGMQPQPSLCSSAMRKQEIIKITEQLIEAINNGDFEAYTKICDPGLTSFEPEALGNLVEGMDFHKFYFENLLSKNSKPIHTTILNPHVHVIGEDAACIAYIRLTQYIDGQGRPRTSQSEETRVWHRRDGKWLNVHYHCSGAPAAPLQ

CDK2 CCNA2 (human) = CDK2 CCNA2 (human) (UniProt P24941+P20248); conditions: ATP 45 µM
Chain of CDK2 CCNA2 (human) (P20248 whole entry, looked up, other chains not shown): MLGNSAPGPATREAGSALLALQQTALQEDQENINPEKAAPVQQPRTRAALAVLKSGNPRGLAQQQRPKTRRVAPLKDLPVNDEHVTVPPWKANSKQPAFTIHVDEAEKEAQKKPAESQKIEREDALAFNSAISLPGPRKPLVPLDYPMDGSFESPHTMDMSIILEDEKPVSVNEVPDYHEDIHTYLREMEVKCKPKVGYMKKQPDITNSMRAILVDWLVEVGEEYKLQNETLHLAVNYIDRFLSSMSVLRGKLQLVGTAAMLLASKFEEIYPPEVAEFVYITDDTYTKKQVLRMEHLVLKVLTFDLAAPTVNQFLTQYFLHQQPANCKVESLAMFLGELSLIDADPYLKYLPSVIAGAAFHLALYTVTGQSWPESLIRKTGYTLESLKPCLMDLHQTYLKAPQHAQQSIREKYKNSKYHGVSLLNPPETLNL

STK4 (human) = STK4 (human) (UniProt Q13043); conditions: ATP 90 µM
FYN (human) = FYN (human) (UniProt P06241); conditions: ATP 70 µM
DAPK3 (human) = DAPK3 (human) (UniProt O43293); conditions: ATP 15 µM
MST1R (human) = MST1R (human) (UniProt Q04912); conditions: ATP 70 µM
PIM2 (human) = PIM2 (human) (UniProt Q9P1W9); conditions: ATP 15 µM
Chain of PIM2 (human) (Q9P1W9 whole entry, looked up): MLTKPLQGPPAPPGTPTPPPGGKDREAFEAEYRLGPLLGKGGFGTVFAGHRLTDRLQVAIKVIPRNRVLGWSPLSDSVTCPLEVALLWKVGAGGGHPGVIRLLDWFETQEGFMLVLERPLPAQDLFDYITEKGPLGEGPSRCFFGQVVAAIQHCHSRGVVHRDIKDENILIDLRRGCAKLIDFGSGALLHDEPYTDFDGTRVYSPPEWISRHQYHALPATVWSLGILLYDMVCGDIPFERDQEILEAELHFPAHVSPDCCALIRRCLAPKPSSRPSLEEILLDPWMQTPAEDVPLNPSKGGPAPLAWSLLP

LYN (human) = LYN (human) (UniProt P07948); conditions: ATP 70 µM
ITK (human) = ITK (human) (UniProt Q08881); conditions: ATP 200 µM
PDGFRA (human) = PDGFRA (human) (UniProt P16234); conditions: ATP 120 µM
MAPKAPK3 (human) = MAPKAPK3 (human) (UniProt Q16644); conditions: ATP 90 µM
CAMK2D (human) = CAMK2D (human) (UniProt Q13557); conditions: ATP 10 µM
TAOK2 (human) = TAOK2 (human) (UniProt Q9UL54); conditions: ATP 15 µM
STK3 (human) = STK3 (human) (UniProt Q13188); conditions: ATP 155 µM
[1] = molecular target: PRKAA2 PRKAB1 PRKAG1 (human) (UniProt P54619+P54646+Q9Y478); conditions: ATP 45 µM
PLK2 (human) = PLK2 (human) (UniProt Q9NYY3); conditions: ATP 120 µM
WNK2 (human) = WNK2 (human) (UniProt Q9Y3S1); conditions: ATP 200 µM
Chain of WNK2 (human) (Q9Y3S1 whole entry, looked up): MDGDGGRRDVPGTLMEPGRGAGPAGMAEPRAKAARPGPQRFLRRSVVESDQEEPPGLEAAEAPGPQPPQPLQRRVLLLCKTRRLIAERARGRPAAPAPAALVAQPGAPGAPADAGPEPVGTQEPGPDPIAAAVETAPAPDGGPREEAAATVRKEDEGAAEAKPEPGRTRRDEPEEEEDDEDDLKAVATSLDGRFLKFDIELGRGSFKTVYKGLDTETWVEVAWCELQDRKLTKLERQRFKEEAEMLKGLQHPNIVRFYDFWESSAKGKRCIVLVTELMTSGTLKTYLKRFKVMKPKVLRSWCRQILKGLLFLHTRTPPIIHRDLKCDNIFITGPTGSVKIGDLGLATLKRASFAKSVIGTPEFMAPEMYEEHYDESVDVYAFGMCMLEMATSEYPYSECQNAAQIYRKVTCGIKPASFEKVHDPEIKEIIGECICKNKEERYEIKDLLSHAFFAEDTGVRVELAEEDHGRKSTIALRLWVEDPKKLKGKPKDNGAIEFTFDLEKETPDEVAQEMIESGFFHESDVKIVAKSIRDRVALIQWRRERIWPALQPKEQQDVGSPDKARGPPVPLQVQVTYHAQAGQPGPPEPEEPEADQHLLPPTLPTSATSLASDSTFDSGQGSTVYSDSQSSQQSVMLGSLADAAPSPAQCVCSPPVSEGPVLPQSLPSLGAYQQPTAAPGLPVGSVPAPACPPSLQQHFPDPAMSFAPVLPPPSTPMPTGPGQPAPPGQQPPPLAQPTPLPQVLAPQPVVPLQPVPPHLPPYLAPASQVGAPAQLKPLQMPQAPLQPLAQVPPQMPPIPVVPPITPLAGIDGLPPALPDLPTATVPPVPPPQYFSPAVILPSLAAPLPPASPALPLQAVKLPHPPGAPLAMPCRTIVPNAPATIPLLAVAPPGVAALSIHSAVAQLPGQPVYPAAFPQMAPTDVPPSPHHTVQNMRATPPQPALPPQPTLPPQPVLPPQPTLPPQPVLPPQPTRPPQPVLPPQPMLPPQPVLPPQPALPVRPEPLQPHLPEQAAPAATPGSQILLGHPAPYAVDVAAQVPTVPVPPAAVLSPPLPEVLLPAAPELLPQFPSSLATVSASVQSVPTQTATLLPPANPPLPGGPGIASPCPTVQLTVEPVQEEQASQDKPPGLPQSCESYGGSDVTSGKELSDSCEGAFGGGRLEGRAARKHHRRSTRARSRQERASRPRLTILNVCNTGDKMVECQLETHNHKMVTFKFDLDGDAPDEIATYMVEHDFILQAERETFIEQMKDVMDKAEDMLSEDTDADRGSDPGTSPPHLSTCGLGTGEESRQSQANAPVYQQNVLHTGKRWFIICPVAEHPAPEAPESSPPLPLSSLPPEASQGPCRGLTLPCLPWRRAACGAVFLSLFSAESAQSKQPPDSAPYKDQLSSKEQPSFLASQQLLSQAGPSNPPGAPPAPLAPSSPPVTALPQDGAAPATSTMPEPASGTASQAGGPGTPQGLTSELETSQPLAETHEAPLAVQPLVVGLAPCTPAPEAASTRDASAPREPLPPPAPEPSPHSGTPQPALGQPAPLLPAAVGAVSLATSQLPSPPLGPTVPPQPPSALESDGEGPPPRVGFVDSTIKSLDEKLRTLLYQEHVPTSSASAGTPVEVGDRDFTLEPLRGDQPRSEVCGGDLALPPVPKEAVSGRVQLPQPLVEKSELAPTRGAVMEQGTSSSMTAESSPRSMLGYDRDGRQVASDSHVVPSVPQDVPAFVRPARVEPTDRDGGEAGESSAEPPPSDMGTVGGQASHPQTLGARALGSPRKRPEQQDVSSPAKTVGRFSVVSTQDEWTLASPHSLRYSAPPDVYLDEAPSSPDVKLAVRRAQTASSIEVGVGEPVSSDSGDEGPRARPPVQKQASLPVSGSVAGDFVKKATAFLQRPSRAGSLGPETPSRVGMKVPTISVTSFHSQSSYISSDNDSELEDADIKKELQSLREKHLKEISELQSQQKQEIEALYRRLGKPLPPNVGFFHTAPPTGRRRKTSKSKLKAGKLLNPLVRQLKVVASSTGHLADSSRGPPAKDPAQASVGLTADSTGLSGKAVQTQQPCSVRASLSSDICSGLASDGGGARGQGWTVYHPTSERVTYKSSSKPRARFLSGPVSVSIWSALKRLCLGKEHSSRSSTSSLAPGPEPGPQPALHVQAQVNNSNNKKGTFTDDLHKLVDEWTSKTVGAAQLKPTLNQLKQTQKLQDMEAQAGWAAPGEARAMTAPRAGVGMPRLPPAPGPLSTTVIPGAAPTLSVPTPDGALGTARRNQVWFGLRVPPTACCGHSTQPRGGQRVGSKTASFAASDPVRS

RPS6KA6 KD1 KD2 (human) = RPS6KA6 KD1 KD2 (human) (UniProt Q9UK32); conditions: ATP 45 µM
PKN2 (human) = PKN2 (human) (UniProt Q16513); conditions: ATP 15 µM
STK11 (human) = STK11 (human) (UniProt Q15831); conditions: ATP 155 µM
FLT3 (human) = FLT3 (human) (UniProt P36888); conditions: ATP 200 µM
Chain of FLT3 (human) (P36888 whole entry, looked up): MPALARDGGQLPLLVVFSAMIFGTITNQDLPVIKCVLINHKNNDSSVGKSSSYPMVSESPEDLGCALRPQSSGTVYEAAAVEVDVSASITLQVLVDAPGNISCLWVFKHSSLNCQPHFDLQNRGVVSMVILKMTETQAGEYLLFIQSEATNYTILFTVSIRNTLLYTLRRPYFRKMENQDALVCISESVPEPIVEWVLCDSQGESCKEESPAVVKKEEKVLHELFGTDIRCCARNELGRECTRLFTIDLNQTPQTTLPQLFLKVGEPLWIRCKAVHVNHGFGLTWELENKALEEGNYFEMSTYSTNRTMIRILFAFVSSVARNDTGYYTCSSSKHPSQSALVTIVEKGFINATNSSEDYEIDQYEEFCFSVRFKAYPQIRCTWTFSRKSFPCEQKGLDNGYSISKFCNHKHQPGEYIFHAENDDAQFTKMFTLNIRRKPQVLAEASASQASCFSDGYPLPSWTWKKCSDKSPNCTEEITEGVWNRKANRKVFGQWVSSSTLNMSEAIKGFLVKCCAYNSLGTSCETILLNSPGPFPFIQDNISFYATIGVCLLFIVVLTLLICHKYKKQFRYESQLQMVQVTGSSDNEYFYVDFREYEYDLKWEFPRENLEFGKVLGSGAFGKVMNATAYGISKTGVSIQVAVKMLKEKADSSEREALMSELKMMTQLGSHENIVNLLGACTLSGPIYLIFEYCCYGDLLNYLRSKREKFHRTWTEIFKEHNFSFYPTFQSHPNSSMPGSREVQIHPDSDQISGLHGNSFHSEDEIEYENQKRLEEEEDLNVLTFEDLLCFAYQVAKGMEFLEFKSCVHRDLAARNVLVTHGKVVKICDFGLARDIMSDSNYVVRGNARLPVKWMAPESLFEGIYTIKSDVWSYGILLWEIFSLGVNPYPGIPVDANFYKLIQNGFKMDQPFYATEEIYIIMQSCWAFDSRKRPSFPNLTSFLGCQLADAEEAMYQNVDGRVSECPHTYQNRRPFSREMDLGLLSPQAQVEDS

MTOR (human) = MTOR (human) (UniProt P42345); conditions: ATP 70 µM
DAPK2 (human) = DAPK2 (human) (UniProt Q9UIK4); conditions: ATP 10 µM
NEK7 (human) = NEK7 (human) (UniProt Q8TDX7); conditions: ATP 45 µM
CDK9 CCNT1 (human) = CDK9 CCNT1 (human) (UniProt P50750+O60563); conditions: ATP 45 µM
TLK2 (human) = TLK2 (human) (UniProt Q86UE8); conditions: ATP 10 µM
EPHA3 (human) = EPHA3 (human) (UniProt P29320); conditions: ATP 120 µM
RPS6KA4 KD1 KD2 (human) = RPS6KA4 KD1 KD2 (human) (UniProt O75676); conditions: ATP 45 µM

Chain of CAMK1D (human) (Q8IU85 whole entry, looked up): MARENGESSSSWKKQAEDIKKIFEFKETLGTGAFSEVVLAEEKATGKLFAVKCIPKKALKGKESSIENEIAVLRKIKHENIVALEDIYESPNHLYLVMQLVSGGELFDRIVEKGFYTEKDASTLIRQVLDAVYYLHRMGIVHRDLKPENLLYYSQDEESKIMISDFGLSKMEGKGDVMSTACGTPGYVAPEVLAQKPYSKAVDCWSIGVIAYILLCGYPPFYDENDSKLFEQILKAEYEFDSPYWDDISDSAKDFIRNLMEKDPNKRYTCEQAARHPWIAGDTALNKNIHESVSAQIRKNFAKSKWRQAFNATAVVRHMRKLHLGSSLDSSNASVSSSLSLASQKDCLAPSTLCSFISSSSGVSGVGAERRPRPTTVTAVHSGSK

SMILES: O=C1c2ccccc2-c2n[nH]c3cccc1c23
- residual activity (SRC (human); compound 1.0 µM): 89%
- residual activity (SRC (human); compound 10.0 µM): 64%
- residual activity (CDC42BPA (human); compound 1.0 µM): 115%
- residual activity (CDC42BPA (human); compound 10.0 µM): 116%
- residual activity (ABL1 (human); compound 1.0 µM): 83%
- residual activity (ABL1 (human); compound 10.0 µM): 56%
- residual activity (CAMK1D (human); compound 1.0 µM): 70%
- residual activity (CAMK1D (human); compound 10.0 µM): 38%
- residual activity (CAMK2G (human); compound 1.0 µM): 37%
- residual activity (CAMK2G (human); compound 10.0 µM): 8%
- residual activity (CDK2 CCNA2 (human); compound 1.0 µM): 59%
- residual activity (CDK2 CCNA2 (human); compound 10.0 µM): 36%
- residual activity (STK4 (human); compound 1.0 µM): 52%
- residual activity (STK4 (human); compound 10.0 µM): 21%
- residual activity (FYN (human); compound 1.0 µM): 60%
- residual activity (FYN (human); compound 10.0 µM): 47%
- residual activity (DAPK3 (human); compound 1.0 µM): 87%
- residual activity (DAPK3 (human); compound 10.0 µM): 45%
- residual activity (MST1R (human); compound 1.0 µM): 78%
- residual activity (MST1R (human); compound 10.0 µM): 51%
- residual activity (PIM2 (human); compound 1.0 µM): 58%
- residual activity (PIM2 (human); compound 10.0 µM): 21%
- residual activity (LYN (human); compound 1.0 µM): 70%
- residual activity (LYN (human); compound 10.0 µM): 30%
- residual activity (ITK (human); compound 1.0 µM): 67%
- residual activity (ITK (human); compound 10.0 µM): 21%
- residual activity (PDGFRA (human); compound 1.0 µM): 108%
- residual activity (PDGFRA (human); compound 10.0 µM): 86%
- residual activity (MAPKAPK3 (human); compound 1.0 µM): 100%
- residual activity (MAPKAPK3 (human); compound 10.0 µM): 103%
- residual activity (CAMK2D (human); compound 1.0 µM): 43%
- residual activity (CAMK2D (human); compound 10.0 µM): 8%
- residual activity (TAOK2 (human); compound 1.0 µM): 101%
- residual activity (TAOK2 (human); compound 10.0 µM): 69%
- residual activity (STK3 (human); compound 1.0 µM): 16%
- residual activity (STK3 (human); compound 10.0 µM): 10%
- residual activity ([1]; compound 1.0 µM): 69%
- residual activity ([1]; compound 10.0 µM): 28%
- residual activity (PLK2 (human); compound 1.0 µM): 85%
- residual activity (PLK2 (human); compound 10.0 µM): 61%
- residual activity (WNK2 (human); compound 1.0 µM): 79%
- residual activity (WNK2 (human); compound 10.0 µM): 77%
- residual activity (RPS6KA6 KD1 KD2 (human); compound 1.0 µM): 43%
- residual activity (RPS6KA6 KD1 KD2 (human); compound 10.0 µM): 52%
- residual activity (PKN2 (human); compound 1.0 µM): 74%
- residual activity (PKN2 (human); compound 10.0 µM): 32%
- residual activity (STK11 (human); compound 1.0 µM): 75%
- residual activity (STK11 (human); compound 10.0 µM): 41%
- residual activity (FLT3 (human); compound 1.0 µM): 6%
- residual activity (FLT3 (human); compound 10.0 µM): 1%
- residual activity (MTOR (human); compound 1.0 µM): 104%
- residual activity (MTOR (human); compound 10.0 µM): 77%
- residual activity (DAPK2 (human); compound 1.0 µM): 87%
- residual activity (DAPK2 (human); compound 10.0 µM): 43%
- residual activity (NEK7 (human); compound 1.0 µM): 99%
- residual activity (NEK7 (human); compound 10.0 µM): 89%
- residual activity (CDK9 CCNT1 (human); compound 1.0 µM): 96%
- residual activity (CDK9 CCNT1 (human); compound 10.0 µM): 55%
- residual activity (TLK2 (human); compound 1.0 µM): 71%
- residual activity (TLK2 (human); compound 10.0 µM): 38%
- residual activity (EPHA3 (human); compound 1.0 µM): 75%
- residual activity (EPHA3 (human); compound 10.0 µM): 48%
- residual activity (RPS6KA4 KD1 KD2 (human); compound 1.0 µM): 76%
- residual activity (RPS6KA4 KD1 KD2 (human); compound 10.0 µM): 36%
